Test results taken from ChEMBL document CHEMBL5465560, “Selectivity Literature for EUbOPEN Chemogenomic Library” (2024).
Each block holds one compound with its values, some of them ahead of it.

What was measured:
[1] = target: T1, Cyclin-G-associated kinase (Homo sapiens) (UniProt O14976); experiment: Selectivity interaction (KinomeScan (DiscoverX)) EUB0000655a GAK; conditions: at 10 µM
T1 sequence (whole entry): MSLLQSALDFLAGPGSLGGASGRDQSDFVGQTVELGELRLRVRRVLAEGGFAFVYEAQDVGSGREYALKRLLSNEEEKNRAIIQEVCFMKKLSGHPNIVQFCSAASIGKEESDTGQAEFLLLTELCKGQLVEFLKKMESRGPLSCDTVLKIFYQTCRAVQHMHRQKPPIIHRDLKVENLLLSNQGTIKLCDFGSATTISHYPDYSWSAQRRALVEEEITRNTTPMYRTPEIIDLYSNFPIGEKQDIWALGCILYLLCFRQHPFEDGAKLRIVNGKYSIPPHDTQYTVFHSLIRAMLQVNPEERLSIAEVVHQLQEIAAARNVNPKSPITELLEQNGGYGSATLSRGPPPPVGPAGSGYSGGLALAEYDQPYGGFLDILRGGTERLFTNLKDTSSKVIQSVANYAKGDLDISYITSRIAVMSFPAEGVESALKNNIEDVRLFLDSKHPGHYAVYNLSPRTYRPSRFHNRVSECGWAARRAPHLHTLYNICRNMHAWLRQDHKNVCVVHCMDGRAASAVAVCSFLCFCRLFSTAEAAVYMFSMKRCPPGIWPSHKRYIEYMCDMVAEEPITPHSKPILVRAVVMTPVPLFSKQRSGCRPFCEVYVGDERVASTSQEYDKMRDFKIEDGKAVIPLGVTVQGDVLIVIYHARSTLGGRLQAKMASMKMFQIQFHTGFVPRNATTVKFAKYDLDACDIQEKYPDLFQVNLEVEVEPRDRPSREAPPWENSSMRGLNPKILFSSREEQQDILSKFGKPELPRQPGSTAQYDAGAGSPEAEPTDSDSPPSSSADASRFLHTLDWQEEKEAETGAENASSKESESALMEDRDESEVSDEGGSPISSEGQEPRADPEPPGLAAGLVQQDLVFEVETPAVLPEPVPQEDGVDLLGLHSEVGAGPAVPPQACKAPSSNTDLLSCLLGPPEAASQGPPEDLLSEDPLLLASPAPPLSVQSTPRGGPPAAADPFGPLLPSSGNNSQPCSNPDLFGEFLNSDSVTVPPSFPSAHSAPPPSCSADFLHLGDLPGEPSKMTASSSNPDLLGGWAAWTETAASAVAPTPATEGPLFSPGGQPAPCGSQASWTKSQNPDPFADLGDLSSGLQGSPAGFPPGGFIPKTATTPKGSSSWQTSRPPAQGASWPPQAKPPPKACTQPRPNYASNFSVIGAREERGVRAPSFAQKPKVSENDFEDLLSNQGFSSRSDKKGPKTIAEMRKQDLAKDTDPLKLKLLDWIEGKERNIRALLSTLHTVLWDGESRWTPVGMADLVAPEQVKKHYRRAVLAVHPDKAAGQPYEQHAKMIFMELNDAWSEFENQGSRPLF

[2] = target: T2, Aurora kinase C (Homo sapiens) (UniProt Q9UQB9); experiment: Selectivity interaction (KinomeScan (DiscoverX)) EUB0001079a AURKC; conditions: at 1 µM
T2 sequence (whole entry): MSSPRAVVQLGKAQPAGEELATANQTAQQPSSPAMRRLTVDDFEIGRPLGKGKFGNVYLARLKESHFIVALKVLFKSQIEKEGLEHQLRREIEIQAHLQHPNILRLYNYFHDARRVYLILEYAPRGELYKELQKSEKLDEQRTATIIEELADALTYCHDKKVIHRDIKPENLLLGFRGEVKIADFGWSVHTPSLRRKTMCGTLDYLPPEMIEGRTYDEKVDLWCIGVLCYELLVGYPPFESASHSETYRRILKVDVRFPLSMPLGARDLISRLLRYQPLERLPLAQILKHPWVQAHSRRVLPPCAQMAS

[3] = target: Serine/threonine-protein kinase 38 (Homo sapiens) (UniProt Q15208); experiment: Selectivity interaction (KinomeScan (DiscoverX)) EUB0000618a STK38; conditions: at 10 µM
[4] = target: Serine/threonine-protein kinase VRK2 (Homo sapiens) (UniProt Q86Y07); experiment: Selectivity interaction (KinomeScan (DiscoverX)) EUB0001619a VRK2; conditions: at 1 µM
[5] = target: Protein kinase C eta type (Homo sapiens) (UniProt P24723); conditions: at 10 µM
[6] = target: Phosphatidylinositol 4-kinase beta (Homo sapiens, UniProt Q9UBF8); experiment: Selectivity interaction (ActivX KiNativ screen (kinase selectivity in THP-1 cell lysates)) EUB0000639a PI4KB; assay type: subcellular; conditions: lysate, at 0.04 µM
[7] = target: Histone-lysine N-methyltransferase KMT5B (Homo sapiens) (UniProt Q4FZB7); experiment: Selectivity interaction (Transferase panel (protein, RNA, and DNA methyltransferases. and EP300 (acetyltransferase))) EUB0000270b SUV420H1
[8] = target: Mitogen-activated protein kinase 11 (Homo sapiens) (UniProt Q15759); experiment: Selectivity interaction (KinomeScan (DiscoverX)) EUB0000229b MAPK11; conditions: at 10 µM
[9] = target: T3, Serine/threonine-protein kinase Sgk1 (Homo sapiens) (UniProt O00141); experiment: Selectivity interaction (KinomeScan (DiscoverX)) EUB0001049a SGK1; conditions: at 1 µM
T3 sequence (whole entry): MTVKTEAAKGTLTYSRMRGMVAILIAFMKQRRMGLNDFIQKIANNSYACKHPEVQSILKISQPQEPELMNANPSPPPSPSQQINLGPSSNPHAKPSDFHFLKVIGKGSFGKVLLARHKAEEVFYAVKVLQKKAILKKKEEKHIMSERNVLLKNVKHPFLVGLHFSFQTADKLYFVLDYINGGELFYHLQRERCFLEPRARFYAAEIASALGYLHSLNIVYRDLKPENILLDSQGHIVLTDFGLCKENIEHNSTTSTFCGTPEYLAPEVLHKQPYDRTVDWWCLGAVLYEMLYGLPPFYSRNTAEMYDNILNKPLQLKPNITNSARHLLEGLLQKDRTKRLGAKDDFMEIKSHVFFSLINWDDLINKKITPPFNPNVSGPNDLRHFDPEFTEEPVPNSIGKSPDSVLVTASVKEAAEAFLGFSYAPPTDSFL

Chain of Histone-lysine N-methyltransferase KMT5B (Homo sapiens) (Q4FZB7 whole entry, looked up): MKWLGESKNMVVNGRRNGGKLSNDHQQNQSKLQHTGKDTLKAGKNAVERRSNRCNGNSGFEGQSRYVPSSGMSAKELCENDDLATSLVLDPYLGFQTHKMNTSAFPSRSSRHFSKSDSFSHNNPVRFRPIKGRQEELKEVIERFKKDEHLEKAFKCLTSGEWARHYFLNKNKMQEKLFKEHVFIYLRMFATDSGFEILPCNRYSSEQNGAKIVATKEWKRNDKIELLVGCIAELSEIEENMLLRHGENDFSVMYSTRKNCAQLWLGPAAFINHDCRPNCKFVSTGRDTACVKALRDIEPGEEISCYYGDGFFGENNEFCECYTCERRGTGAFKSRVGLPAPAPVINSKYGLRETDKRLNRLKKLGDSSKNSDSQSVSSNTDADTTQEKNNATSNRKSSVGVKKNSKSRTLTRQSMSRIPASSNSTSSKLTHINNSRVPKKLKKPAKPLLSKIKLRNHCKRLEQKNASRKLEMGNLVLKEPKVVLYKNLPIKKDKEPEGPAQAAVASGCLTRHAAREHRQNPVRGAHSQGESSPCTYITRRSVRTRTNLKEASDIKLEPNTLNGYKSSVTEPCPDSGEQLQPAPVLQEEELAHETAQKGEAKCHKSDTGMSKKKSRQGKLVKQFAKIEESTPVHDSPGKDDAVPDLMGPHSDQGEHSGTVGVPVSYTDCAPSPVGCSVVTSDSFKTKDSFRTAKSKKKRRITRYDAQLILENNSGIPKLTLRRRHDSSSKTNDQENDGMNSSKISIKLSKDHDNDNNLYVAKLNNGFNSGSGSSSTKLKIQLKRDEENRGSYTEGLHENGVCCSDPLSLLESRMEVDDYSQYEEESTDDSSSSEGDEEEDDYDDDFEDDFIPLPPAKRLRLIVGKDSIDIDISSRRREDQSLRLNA
Chain of Phosphatidylinositol 4-kinase beta (Q9UBF8 2-816 limits assumed): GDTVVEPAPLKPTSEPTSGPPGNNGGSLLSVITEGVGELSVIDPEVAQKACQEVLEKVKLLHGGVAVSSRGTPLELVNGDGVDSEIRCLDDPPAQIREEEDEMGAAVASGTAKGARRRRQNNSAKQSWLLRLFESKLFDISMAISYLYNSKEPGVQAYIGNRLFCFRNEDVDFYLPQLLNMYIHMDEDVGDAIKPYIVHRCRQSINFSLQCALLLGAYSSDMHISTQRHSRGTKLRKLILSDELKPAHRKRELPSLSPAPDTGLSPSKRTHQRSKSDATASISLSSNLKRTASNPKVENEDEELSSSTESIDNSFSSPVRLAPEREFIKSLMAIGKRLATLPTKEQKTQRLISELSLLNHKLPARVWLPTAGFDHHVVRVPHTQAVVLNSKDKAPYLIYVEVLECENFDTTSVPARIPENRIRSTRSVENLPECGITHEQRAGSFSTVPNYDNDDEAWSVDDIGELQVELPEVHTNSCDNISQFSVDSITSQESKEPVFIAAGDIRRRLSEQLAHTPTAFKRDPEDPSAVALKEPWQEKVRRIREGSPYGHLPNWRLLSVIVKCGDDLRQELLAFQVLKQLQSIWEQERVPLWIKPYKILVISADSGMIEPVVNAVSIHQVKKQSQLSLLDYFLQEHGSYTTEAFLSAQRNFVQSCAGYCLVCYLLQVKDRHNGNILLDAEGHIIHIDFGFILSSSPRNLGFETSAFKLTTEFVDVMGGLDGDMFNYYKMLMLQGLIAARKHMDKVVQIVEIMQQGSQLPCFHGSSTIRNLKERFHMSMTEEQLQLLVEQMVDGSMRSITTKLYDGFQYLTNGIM
Chain of Serine/threonine-protein kinase VRK2 (Homo sapiens) (Q86Y07 whole entry): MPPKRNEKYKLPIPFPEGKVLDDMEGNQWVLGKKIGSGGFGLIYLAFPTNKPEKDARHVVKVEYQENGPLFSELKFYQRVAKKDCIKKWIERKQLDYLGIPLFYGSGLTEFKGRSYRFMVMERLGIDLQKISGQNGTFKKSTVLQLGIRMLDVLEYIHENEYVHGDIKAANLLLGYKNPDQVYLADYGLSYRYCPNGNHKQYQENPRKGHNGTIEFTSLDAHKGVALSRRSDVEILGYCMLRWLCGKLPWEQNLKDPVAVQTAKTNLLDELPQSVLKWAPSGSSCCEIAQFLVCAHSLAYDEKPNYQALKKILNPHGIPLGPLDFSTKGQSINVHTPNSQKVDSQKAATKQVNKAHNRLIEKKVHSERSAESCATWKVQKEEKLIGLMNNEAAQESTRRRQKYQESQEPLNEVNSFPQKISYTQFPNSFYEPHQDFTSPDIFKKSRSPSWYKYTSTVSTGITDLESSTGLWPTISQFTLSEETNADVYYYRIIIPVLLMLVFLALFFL
Chain of Mitogen-activated protein kinase 11 (Homo sapiens) (Q15759 whole entry): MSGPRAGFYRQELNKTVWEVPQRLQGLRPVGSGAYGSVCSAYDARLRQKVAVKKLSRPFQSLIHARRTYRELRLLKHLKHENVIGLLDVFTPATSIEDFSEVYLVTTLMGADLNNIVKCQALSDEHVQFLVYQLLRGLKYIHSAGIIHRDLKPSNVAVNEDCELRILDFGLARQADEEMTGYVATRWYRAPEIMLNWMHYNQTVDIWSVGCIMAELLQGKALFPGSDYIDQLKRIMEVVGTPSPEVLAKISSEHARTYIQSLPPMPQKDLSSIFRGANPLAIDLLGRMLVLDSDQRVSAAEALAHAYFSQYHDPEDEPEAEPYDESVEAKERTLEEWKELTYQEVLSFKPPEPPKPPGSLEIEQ
Chain of Protein kinase C eta type (Homo sapiens) (P24723 whole entry): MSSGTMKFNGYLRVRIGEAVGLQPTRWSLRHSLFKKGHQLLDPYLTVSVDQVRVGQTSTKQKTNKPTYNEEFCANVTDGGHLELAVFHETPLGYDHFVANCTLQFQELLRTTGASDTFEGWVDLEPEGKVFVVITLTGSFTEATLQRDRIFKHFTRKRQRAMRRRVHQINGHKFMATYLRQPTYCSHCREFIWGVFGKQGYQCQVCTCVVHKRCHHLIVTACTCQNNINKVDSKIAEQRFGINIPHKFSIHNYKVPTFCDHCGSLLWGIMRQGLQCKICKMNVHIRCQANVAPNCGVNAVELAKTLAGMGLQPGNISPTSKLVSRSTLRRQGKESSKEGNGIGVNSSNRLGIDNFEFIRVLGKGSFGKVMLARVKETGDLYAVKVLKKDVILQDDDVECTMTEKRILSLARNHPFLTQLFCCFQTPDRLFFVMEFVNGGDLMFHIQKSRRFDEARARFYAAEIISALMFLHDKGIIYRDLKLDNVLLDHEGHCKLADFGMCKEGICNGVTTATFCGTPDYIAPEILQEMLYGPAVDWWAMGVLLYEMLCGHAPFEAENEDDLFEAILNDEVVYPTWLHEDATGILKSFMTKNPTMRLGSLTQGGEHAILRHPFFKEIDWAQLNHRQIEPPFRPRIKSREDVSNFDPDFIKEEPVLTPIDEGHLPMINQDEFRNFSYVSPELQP
Chain of Serine/threonine-protein kinase 38 (Homo sapiens) (Q15208 2-465 limits assumed): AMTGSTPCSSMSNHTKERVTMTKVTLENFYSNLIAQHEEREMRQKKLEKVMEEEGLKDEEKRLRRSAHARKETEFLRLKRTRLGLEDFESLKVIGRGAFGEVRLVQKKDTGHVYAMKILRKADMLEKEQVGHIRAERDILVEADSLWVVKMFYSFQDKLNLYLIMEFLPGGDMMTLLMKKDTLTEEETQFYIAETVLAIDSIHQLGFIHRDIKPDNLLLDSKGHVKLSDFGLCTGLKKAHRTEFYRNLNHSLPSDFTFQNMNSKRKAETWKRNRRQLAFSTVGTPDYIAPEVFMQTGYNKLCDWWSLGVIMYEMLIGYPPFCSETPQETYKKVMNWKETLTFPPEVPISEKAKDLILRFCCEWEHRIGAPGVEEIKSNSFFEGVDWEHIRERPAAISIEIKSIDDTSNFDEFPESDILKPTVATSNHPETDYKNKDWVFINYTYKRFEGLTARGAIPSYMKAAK

Compound: CN(C)CCOc1ccc(-c2nc(-c3ccncc3)c(-c3ccc4c(c3)CC/C4=N\O)[nH]2)cc1
% of control [1]: 25%

Compound: Nc1cnc(N2CCc3cc(S(=O)(=O)Nc4c(F)cc(Cl)cc4F)cc(N4CCCC4=O)c32)nc1 [TP-020n]
% of control [2]: 100%

Compound: O[C@H]1CC[C@H](Nc2ncc3nc(Nc4c(F)cc(F)cc4F)n([C@H]4CCOC4)c3n2)CC1
% of control [3]: 100%

Compound: N#Cc1cccc(-c2c[nH]c3ncnc(N4CCOCC4)c23)c1
% of control [4]: 100%

Compound: Cc1cc([C@@H](C)Nc2ccccc2C(=O)O)c2nc(N3CCOCC3)cc(=O)n2c1 [AZD-6482]
% of control [5]: 82%

% of inhibition [6]: -0.3%
Compound: CC[C@@H]1[C@H](F)C(=O)N[C@@H]1COc1nccc2cc(C(N)=O)c(OC)cc12 [ZIMLOVISERTIB]

% activity ([7]; at 1 µM): > 90% | % activity ([7]; at 10 µM): > 80%
Compound: Cc1cc(CN)cc(C)c1-c1ncn(C)c1-c1cncn1C

Compound: COc1cc(N(C)c2ccnc3ccc(C(F)(F)F)cc23)cc(OC)c1OC
% binding [8]: 90%

Compound: COc1cc(Nc2nc(C)cc(-c3cnn4nc(OC)ccc34)n2)cc(C(F)(F)F)c1
% of control [9]: 94%
